From patent US4126616A, “N-propylnorapomorphine diesters” (Hinshaw; William B., priority 1976, dated 1978)
Where a name gives a salt, the structure may show the parent alone. Read-outs that look alike come from different tables or passages of the source.

System: caudate lesioned mouse
Assay: caudate lesioned mouse test (anti-parkinson activity)
Type: in vivo
Details: for responders at 26 µmol/kg / responders at 52 µmol/kg / responders at 5.2 µmol/kg / responders at 94 µmol/kg / responders at 13 µmol/kg / responders at 132 µmol/kg / responders at 104 µmol/kg: Mus musculus; for Molar Potency Ratio Claimed/Ref. Ester: claimed N-propyl ester vs corresponding N-methyl reference ester; for ED50: caudate lesioned mouse, read-out: ED50; for responders at 5.2 µmol/kg: dose 0.0052 m. mole/kg; for responders at 94 µmol/kg: dose 0.094 m. mole/kg; for responders at 13 µmol/kg: dose 0.013 m. mole/kg; for responders at 132 µmol/kg: dose 0.132 m. mole/kg
Description: An index of anti-parkinson activity was determined using the caudate lesioned mouse test described by Lotti, Life Sci., 10, 781-789 (1971). The mice having unilateral lesions of the caudate nucleus prepared according to the method of Lotti supra were observed immediately after the surgical procedure for strong postural asymmetries directed to the same side as the lesion. When this asymmetry was not observed, the mice were discarded. Operated mice were allowed at least 14 days to recover prior to drug testing. The lesioned mice were tested with apomorphine using 1.7 mg./kg. of base administered intraperitoneally in a 1% suspension in gum tragacanth. […] Only those mice which twisted or circled toward the lesioned side in all three test periods after the apomorphine injection were retained for further drug testing. The test drugs were all administered in 1% gum tragacanth suspension in a volume of 0.1 ml./10 g. of body weight. Doses were expressed in mg./kg. of free base.
Results of tests in the caudate lesioned mouse test described above which were obtained on the compounds of the invention are given in the table below identified, in each case, by the example numbers above where their preparations are described. Corresponding data for reference apomorphine diesters described in German patent application No. 2,154,162 are given in a side-by-side relationship for a number of the species. The reference compounds, designated Ref. 1, Ref. 1B, Ref. 1C, Ref. 1D, Ref. 1E, Ref. 1F, Ref. 2 and Ref. 2A correspond, respectively, to the compounds of the invention identified by Examples 1, 1B, 1C, 1D, 1E, 1F, 2 and 2A and differ from the latter only in having a methyl group on the apomorphine nitrogen from instead of an n-propyl group as present in the instant compounds.

[1] = 0.5 h, dose 0.026 m. mole/kg, 1/2 h post-drug, read-out: No. Mice Affected/No. Mice Tested, 1/2 h (converted)
[2] = dose 0.026 m. mole/kg, 1 h post-drug, read-out: No. Mice Affected/No. Mice Tested, 1 h (converted)
[3] = dose 0.026 m. mole/kg, 4 h post-drug, read-out: No. Mice Affected/No. Mice Tested, 4 h (converted)
[4] = dose 0.026 m. mole/kg, 6 h post-drug, read-out: No. Mice Affected/No. Mice Tested, 6 h (converted)
[5] = dose 0.026 m. mole/kg, 24 h post-drug, read-out: No. Mice Affected/No. Mice Tested, 24 h
[6] = dose 0.026 m. mole/kg, total, read-out: No. Mice Affected/No. Mice Tested, Total (converted)
[7] = 6 h post-drug, read-out: No. Mice Affected/No. Mice Tested, 6 h
[8] = 24 h post-drug, read-out: No. Mice Affected/No. Mice Tested, 24 h
[9] = dose 0.026 m. mole/kg, 2 h post-drug, read-out: No. Mice Affected/No. Mice Tested, 2 h (converted)
[10] = 0.5 h, 1/2 h post-drug, read-out: No. Mice Affected/No. Mice Tested, 1/2 h (converted)
[11] = 1 h post-drug, read-out: No. Mice Affected/No. Mice Tested, 1 h (converted)
[12] = 2 h post-drug, read-out: No. Mice Affected/No. Mice Tested, 2 h (converted)
[13] = 4 h post-drug, read-out: No. Mice Affected/No. Mice Tested, 4 h (converted)
[14] = 6 h post-drug, read-out: No. Mice Affected/No. Mice Tested, 6 h (converted)
[15] = 24 h post-drug, read-out: No. Mice Affected/No. Mice Tested, 24 h (converted)
[16] = total, read-out: No. Mice Affected/No. Mice Tested, Total (converted)
[17] = 0.5 h, read-out: No. Mice Affected/No. Mice Tested, 1/2 h
[18] = 1 h, read-out: No. Mice Affected/No. Mice Tested, 1 h
[19] = 4 h, read-out: No. Mice Affected/No. Mice Tested, 4 h
[20] = 6 h, read-out: No. Mice Affected/No. Mice Tested, 6 h
[21] = 24 h, read-out: No. Mice Affected/No. Mice Tested, 24 h
[22] = read-out: No. Mice Affected/No. Mice Tested, Total

CCCN1CCc2cccc3c2C1Cc1ccc(OC(=O)C(C)C)c(OC(=O)C(C)C)c1-3 (stereo not shown) [Ex. 1B, N-Propylnorapomorphine diisobutyrate]
responders at 26 µmol/kg [1]: 0% | responders at 52 µmol/kg (0.5 h, dose 0.052 m. mole/kg, 1/2 h post-drug, read-out: No. Mice Affected/No. Mice Tested, 1/2 h (converted)): 33.3% | responders at 26 µmol/kg [2]: 25% | responders at 26 µmol/kg [3]: 50% | responders at 26 µmol/kg [4]: 50% | responders at 26 µmol/kg [5]: 0% | responders at 26 µmol/kg [6]: 50% | responders at 52 µmol/kg (dose 0.052 m. mole/kg, 1 h post-drug, read-out: No. Mice Affected/No. Mice Tested, 1 h (converted)): 33.3% | responders at 52 µmol/kg (dose 0.052 m. mole/kg, 4 h post-drug, read-out: No. Mice Affected/No. Mice Tested, 4 h (converted)): 33.3% | responders at 52 µmol/kg (dose 0.052 m. mole/kg, 6 h post-drug, read-out: No. Mice Affected/No. Mice Tested, 6 h (converted)): 0% | responders at 52 µmol/kg (dose 0.052 m. mole/kg, 24 h post-drug, read-out: No. Mice Affected/No. Mice Tested, 24 h): 0% | responders at 52 µmol/kg (dose 0.052 m. mole/kg, total, read-out: No. Mice Affected/No. Mice Tested, Total (converted)): 33.3% | Molar Potency Ratio Claimed/Ref. Ester: ≥ 8

CCCN1CCc2cccc3c2C1Cc1ccc(OC(=O)c2cc(OC)c(OC)c(OC)c2)c(OC(=O)c2cc(OC)c(OC)c(OC)c2)c1-3 (stereo not shown) [Ex. 1L, N-Propylnorapomorphine bis-3,4,5-trimethoxybenzoate hydrochloride]
ED50: 15 µmol/kg | responders at 5.2 µmol/kg (0.5 h, 1/2 h post-drug, read-out: No. Mice Affected/No. Mice Tested, 1/2 h): 0% | responders at 26 µmol/kg [1]: 75% | responders at 5.2 µmol/kg (1 h post-drug, read-out: No. Mice Affected/No. Mice Tested, 1 h): 0% | responders at 5.2 µmol/kg (2 h post-drug, read-out: No. Mice Affected/No. Mice Tested, 2 h): 0% | responders at 5.2 µmol/kg (4 h post-drug, read-out: No. Mice Affected/No. Mice Tested, 4 h): 0% | responders at 5.2 µmol/kg [7]: 0% | responders at 5.2 µmol/kg [8]: 0% | responders at 5.2 µmol/kg (total, read-out: No. Mice Affected/No. Mice Tested, Total): 0% | responders at 26 µmol/kg [2]: 75% | responders at 26 µmol/kg [9]: 100% | responders at 26 µmol/kg [3]: 100% | responders at 26 µmol/kg [4]: 100% | responders at 26 µmol/kg [5]: 0% | responders at 26 µmol/kg [6]: 100%

CCCN1CCc2cccc3c2C1Cc1ccc(OC(=O)c2ccc(C)cc2)c(OC(=O)c2ccc(C)cc2)c1-3 (stereo not shown) [Ex. 1H, N-Propylnorapomorphine bis-4-methylbenzoate]
ED50: 70 µmol/kg | responders at 26 µmol/kg [1]: 0% | responders at 94 µmol/kg [10]: 100% | responders at 26 µmol/kg [2]: 0% | responders at 26 µmol/kg [9]: 0% | responders at 26 µmol/kg [3]: 0% | responders at 26 µmol/kg [4]: 0% | responders at 26 µmol/kg [5]: 0% | responders at 26 µmol/kg [6]: 0% | responders at 94 µmol/kg [11]: 75% | responders at 94 µmol/kg [12]: 75% | responders at 94 µmol/kg [13]: 75% | responders at 94 µmol/kg [14]: 75% | responders at 94 µmol/kg [15]: 75% | responders at 94 µmol/kg [16]: 100%

CCCN1CCc2cccc3c2C1Cc1ccc(OC(=O)C2CC2)c(OC(=O)C2CC2)c1-3 (stereo not shown) [Ex. 1M, N-Propylnorapomorphine bis-cyclopropanecarboxylate]
ED50: 13 µmol/kg | responders at 13 µmol/kg [10]: 50% | responders at 26 µmol/kg [1]: 100% | responders at 132 µmol/kg [10]: 100% | responders at 13 µmol/kg [11]: 50% | responders at 13 µmol/kg [12]: 50% | responders at 13 µmol/kg [13]: 25% | responders at 13 µmol/kg [7]: 0% | responders at 13 µmol/kg [8]: 0% | responders at 13 µmol/kg [16]: 50% | responders at 26 µmol/kg [2]: 75% | responders at 26 µmol/kg [9]: 75% | responders at 26 µmol/kg [3]: 75% | responders at 26 µmol/kg [4]: 75% | responders at 26 µmol/kg [5]: 0% | responders at 26 µmol/kg [6]: 100% | responders at 132 µmol/kg [11]: 100% | responders at 132 µmol/kg [12]: 100% | responders at 132 µmol/kg [13]: 100% | responders at 132 µmol/kg [14]: 100% | responders at 132 µmol/kg [15]: 100% | responders at 132 µmol/kg [16]: 100%

CCCN1CCc2cccc3c2C1Cc1ccc(OC(C)=O)c(OC(C)=O)c1-3 (stereo not shown) [Ex. 2, N-propylnorapomorphine diacetate]
responders at 26 µmol/kg [17]: 100% | responders at 52 µmol/kg [17]: 25% | responders at 104 µmol/kg [17]: 50% | responders at 26 µmol/kg [18]: 100% | responders at 52 µmol/kg [18]: 25% | responders at 104 µmol/kg [18]: 75% | responders at 26 µmol/kg [19]: 50% | responders at 52 µmol/kg [19]: 25% | responders at 104 µmol/kg [19]: 25% | responders at 26 µmol/kg [20]: 100% | responders at 52 µmol/kg [20]: 75% | responders at 104 µmol/kg [20]: 50% | responders at 26 µmol/kg [21]: 50% | responders at 52 µmol/kg [21]: 0% | responders at 104 µmol/kg [21]: 50% | responders at 26 µmol/kg [22]: 100% | responders at 52 µmol/kg [22]: 75% | responders at 104 µmol/kg [22]: 75% | Molar Potency Ratio Claimed/Ref. Ester: ≥ 16

CCCN1CCc2cccc3c2C1Cc1ccc(OC(=O)C(C)(C)C)c(OC(=O)C(C)(C)C)c1-3 (stereo not shown) [Ex. 1C, N-Propylnorapomorphine dipivaloate]
responders at 26 µmol/kg [1]: 0% | responders at 26 µmol/kg [2]: 0% | responders at 26 µmol/kg [3]: 100% | responders at 26 µmol/kg [4]: 100% | responders at 26 µmol/kg [5]: 0% | responders at 26 µmol/kg [6]: 100% | Molar Potency Ratio Claimed/Ref. Ester: ≥ 16
